For data set [1] the following is noted: cited from earlier work.
Another data set can be described thus: physchem. From the text:
The coating may also include binders or small molecules designed to optimize the tissue solubility of the drug coating, to produce a desired cohesiveness in the drug coating, and a desired drug release rate in the implanted stent.

Data set [2] in a line: in vitro drug elution in PBS from platinum-coated stent. Type of data set: physicochemical. The conditions noted are these: 252 μg on platinum-plated anchoring layer stent, by day 34. The text has this:
FIG. 7 is an elution profile in PBS of the drug Biolimus A-9 from the stent of the invention as measured by the total amount of drug released in μg over cumulative time in hours.
It will be appreciated that the actual rate of drug release in vivo will be much greater, e.g., the bulk of the drug released will be released within the first few days following implantation, due to the greater hydrophobicity of the cell-membrane environment in vivo. However, the in vitro release in a purely aqueous medium provides a useful standard for formulating the drug coating, to achieve an effective drug release rate in vivo and also to achieve, a desired drug-layer cohesiveness.

Data set [3] relates to restenosis in porcine coronary arteries. The data set is described as follows: swine restenosis animal model, stent implantation. The conditions noted are these: 28 days after implantation, platinum anchoring layer stent with vs without drug coating. Type of data set: in vivo. The text has this:
Briefly, studies conducted in support of the present invention compared the extent of restenosis at 28 days following stent implantation, in metal stents having an electroplated platinum anchoring layer, with or without a drug coating of Biolimus A-9.

We go through five compounds from patent US8252047B2, “Drug-delivery endovascular stent and method for treating restenosis” (Biosensors International Group, Ltd., priority 2004, dated 2012).

Molecules are shown by their SMILES.

Take `CCc1ccc(CCOc2ccc(CC3SC(=O)NC3=O)cc2)nc1` (stereo not drawn) [pioglitazone]: in data set [1] (acetone), the solubility in acetone entry is “slightly soluble”. The solubility in ethanol entry in data set [1] (ethanol) is given as “slightly soluble”. For the same compound, the solubility in water result in data set [1] (water) is “insoluble”.

For the compound `CCOCCO[C@@H]1CC[C@@H](C[C@@H](C)[C@@H]2CC(=O)[C@H](C)/C=C(\C)[C@@H](O)[C@@H](OC)C(=O)[C@H](C)C[C@H](C)/C=C/C=C/C=C(\C)[C@@H](OC)C[C@@H]3CC[C@@H](C)[C@@](O)(O3)C(=O)C(=O)N3CCCC[C@H]3C(=O)O2)C[C@H]1OC` [Biolimus A-9], in “physchem”, the “log P (log partition coefficient between octanol and water)” value (from here on “log P”) was 7.63. Moreover, the “fraction of drug eluted from the stent” value in data set [2] is recorded as “about one-third”. For the same compound, the extent of restenosis entry in data set [3] was “significantly reduced the extent of restenosis”.

With `CO[C@H]1C[C@@H]2CC[C@@H](C)[C@@](O)(O2)C(=O)C(=O)N2CCCC[C@H]2C(=O)O[C@H]([C@H](C)C[C@@H]2CC[C@@H](OCCO)[C@H](OC)C2)CC(=O)[C@H](C)/C=C(\C)[C@@H](O)[C@@H](OC)C(=O)[C@H](C)C[C@H](C)/C=C/C=C/C=C/1C` [everolimus], the “log P” value in the data set “physchem” was found to be 6.70.

`CO[C@H]1C[C@@H]2CC[C@@H](C)[C@@](O)(O2)C(=O)C(=O)N2CCCC[C@H]2C(=O)O[C@H]([C@H](C)C[C@@H]2CC[C@@H](O)[C@H](OC)C2)CC(=O)[C@H](C)/C=C(\C)[C@@H](O)[C@@H](OC)C(=O)[C@H](C)C[C@H](C)/C=C/C=C/C=C/1C` [rapamycin]: the “log P” value in “physchem” (modified HPLC method (Lombardo et al.)) was found to be 6.51.

What is called chromatographic logP is lipophilicity estimated from chromatographic retention. A high value points to a more lipophilic compound. For the compound `CC(=O)O[C@H]1C(=O)[C@@]2(C)[C@H]([C@H](OC(=O)c3ccccc3)[C@]3(O)C[C@H](OC(=O)[C@H](O)[C@@H](NC(=O)c4ccccc4)c4ccccc4)C(C)=C1C3(C)C)[C@]1(OC(C)=O)CO[C@@H]1C[C@@H]2O` [paclitaxel], the chromatographic logP in “physchem” was 4.68.
